The record followed here is PubChem BioAssay (NCI).

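Five concentrations, 48 hours, 96-well plates. GI50 = concentration required for 50% inhibition of growth. The concentration for full growth arrest is given as TGI.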

What all share (assay): inhibition of tumour cell growth, NCI panel, 48 h
The subject of test [1] is HS 578T breast.
Test [2] deals with NCI/ADR-RES ovarian.
Test [3] has as its system HCT-116 colon.
For test [4], the system named is SW-620 colon.
Test [5] deals with HCC-2998 colon.
In test [6] the test system is DU-145 prostate.
Test [7] has as its system SK-MEL-2 melanoma.
Test [8] deals with SNB-19 CNS.
Test [9] relates to ACHN renal.
In test [10] the test system is SNB-75 CNS.

Regarding `CN1C(=O)N/C(=C\c2ccc(S(=O)(=O)NN)cc2)C1=O`, the TGI in test [1], in test [2], in [3], in test [4], in test [5] and in test [6] was over 100 µM in each case. Besides, the TGI in test [7], in [8], in test [9] and in test [10] was over 100 µM in each case.
Regarding `CCSc1n/c(=C\c2ccco2)c2nnnn12`, the TGI in test [1], in [2], in test [3], in [4], in test [5] and in test [6] was over 100 µM throughout. The TGI in [7], in test [8], in test [9] and in [10] was over 100 µM in each case.
`Nc1nc(N)c2[nH]c(CNc3ccc(C(=O)O)cc3)nc2n1`: the TGI in [1], in [2], in test [3], in [4], in test [5] and in test [6] was over 100 µM throughout. For the same molecule, the TGI in test [7], in test [8], in [9] and in test [10] was over 100 µM each time.
As for `Cc1ccc(S(=O)(=O)N/N=C/C(=C/c2ccc(Cl)cc2)CC(/C=N/NS(=O)(=O)c2ccc(C)cc2)=C\c2ccc(Cl)cc2)cc1`, the TGI in test [1] is 21.5 µM; in test [2] it was 94.3 µM; in test [3] it was 18.9 µM; in [4], 27.6 µM; in test [5], 8.98 µM; in test [6] it was over 100 µM. For the same molecule, the TGI in test [7] is 24.9 µM; in [8] it was over 100 µM; in test [9] it was 19.1 µM; in test [10], 60.1 µM.
As for `O=C(O)c1nc(-c2ccccc2)ncc1-c1nnnn1-c1ccccc1`, the TGI in test [1], in [2], in test [3], in test [4], in [5] and in [6] was over 100 µM throughout. In addition, the TGI in [7], in test [8], in test [9] and in test [10] was over 100 µM each time.
For the molecule `C=C1CC(c2ccc(OCCCN3C(=O)c4ccccc4C3=O)c(OC)c2)OC1=O` (stereo not given), the TGI in test [1] was 32.4 µM; in test [2], over 100 µM; in test [3], 6.6 µM; in [4], 4.75 µM; in test [5], 27.7 µM; in test [6] it was 24.5 µM. Besides, the TGI in test [7] came to 18.4 µM; in test [8] it was 28 µM; in test [9], 18.7 µM; in test [10] it was 8.06 µM.
On to `CC1CC(N)=Nc2ccccc2N1` (stereo not given), for which the TGI in [1], in test [2], in test [3], in test [4], in test [5] and in test [6] was over 100 µM throughout. In addition, the TGI in test [7], in test [8], in [9] and in test [10] was over 100 µM in each case.
Turning to `O=C(O)/C=N\Nc1nc2ccccc2[nH]1`, the TGI in test [1], in [2], in test [3], in test [4], in test [5] and in test [6] was over 100 µM throughout. Further, the TGI in [7], in test [8], in test [9] and in [10] was over 100 µM in each case.
Regarding `COc1ccc(N=C2SC(=N/N=c3\sc4ccccc4n3C)SC2=Nc2ccc(OC)cc2)cc1`, the TGI in test [1], in [2], in [3], in [4], in test [5] and in test [6] was over 100 µM each time. In addition, the TGI is over 100 µM in [7], over 100 µM in test [8], over 100 µM in [9] and 94.5 µM in [10].
Take `Cc1nc(N)sc1-c1ccnc(Nc2ccc(N3CCOCC3)cc2)n1`: the GI50 was 0.603 µM in [1]; 3.43 µM in test [2]; 1.52 µM in [3]; 1.41 µM in [4]; 11.8 µM in test [5]; 2.99 µM in test [6]. In addition, the GI50 is 5.16 µM in test [7], over 49.5 µM in test [8], 0.8 µM in test [9] and 1.38 µM in test [10]. Besides, the TGI is over 100 µM in test [1]; over 100 µM in test [2]; over 100 µM in test [3]; 24.9 µM in test [4]; over 100 µM in test [5]; over 100 µM in test [6]. Moreover, the TGI is 59.3 µM in test [7], over 100 µM in test [8], over 100 µM in test [9] and 5.57 µM in [10].
`COc1ccc(C(C)NNC(=O)c2ccncc2)c(OC)c1` (stereo not given): the TGI in [1], in [2], in test [3], in test [4], in test [5] and in [6] was over 100 µM each time. In addition, the TGI in test [7], in test [8], in [9] and in [10] was over 100 µM each time.
Take `C[C@]12CC[C@H](O)CC1=CC[C@@H]1[C@@H]2CC[C@]2(C)C(=O)[C@@H](N3CCOCC3)C[C@@H]12`: the TGI in [1], in test [2], in [3], in test [4], in [5] and in [6] was over 100 µM each time. Further, the TGI in test [7] was over 100 µM; in test [8] it was over 100 µM; in test [9], over 100 µM; in [10] it was 99.2 µM.
Regarding `O=c1[nH]c(-c2ccc3ccccc3c2)nc2ccccc12`, the TGI in test [1], in test [2], in [3], in test [4], in test [5] and in test [6] was over 100 µM throughout. For the same molecule, the TGI in [7] was over 100 µM; in [8], 51.4 µM; in [9], 80.2 µM; in test [10], 28.6 µM.
As to `O=[N+]([O-])c1cc2oc(COc3ccccc3)nc2cc1Cl`, the TGI is over 100 µM in test [1]; 61.2 µM in test [2]; 44.9 µM in test [3]; over 100 µM in test [4]; 43.3 µM in [5]; over 100 µM in [6]. In addition, the TGI in test [7] was 44.2 µM; in test [8], over 100 µM; in test [9] it was over 100 µM; in test [10], 58 µM.
For the molecule `C=C1C[C@@H]2O[C@H]3[C@H]4[C@@H](C[C@@H](C)[C@@H](OC(C)=O)[C@H]42)[C@@H](C)CO[C@@]3(C)[C@H](OC(C)=O)C[C@H]1O`, the TGI in test [1], in test [2], in test [3], in [4], in test [5] and in test [6] was over 100 µM throughout. For the same molecule, the TGI in [7], in [8], in [9] and in test [10] was over 100 µM throughout.
Regarding `CNc1ccc(OC)cc1S(=O)(=O)c1ccccc1[N+](=O)[O-]`, the TGI in test [1], in [2], in test [3], in [4], in test [5] and in test [6] was over 100 µM throughout. Also, the TGI in test [7], in test [8], in [9] and in test [10] was over 100 µM each time.
With `COc1ccc(CC2c3cc(Oc4cc(CC5c6cc(OC)c(OC)cc6CCN5C)ccc4O)c(OC)cc3CCN2C)cc1` (stereo not given), the TGI in test [1] was 19.3 µM; in test [2] it was 14.4 µM; in test [3], 4.6 µM; in test [4], 7.29 µM; in test [5] it was 2.64 µM; in test [6], 6.34 µM. Moreover, the TGI was found to be 15.6 µM in [7], 12.5 µM in test [8], 13.5 µM in [9] and 15.3 µM in [10].
Consider `COc1cc(C2c3cc4c(cc3OC(N3CCCC3)C2C)OCO4)cc(OC)c1O` (stereo not given), for which the TGI in test [1] is 37.4 µM; in test [2] it was 37 µM; in test [3] it was over 100 µM; in [4], over 100 µM; in test [5], over 94.3 µM; in [6] it was over 90 µM. In addition, the TGI in test [7] was over 85.9 µM; in test [8] it was 38.9 µM; in test [9], over 100 µM; in test [10] it was 24.5 µM.
On to `NC(N)=NCCN=C(N)N`, for which the TGI in test [1], in test [2], in [3], in test [4], in test [5] and in test [6] was over 100 µM in each case. Besides, the TGI in test [7], in [8], in test [9] and in [10] was over 100 µM each time.
With `CN(c1ccc(Cl)cc1)S(=O)(=O)c1cccc([N+](=O)[O-])c1`, the TGI in [1], in [2], in test [3], in test [4], in test [5] and in test [6] was over 100 µM each time. The TGI in test [7], in test [8], in test [9] and in [10] was over 100 µM in each case.
In the case of `CN(c1ccc(Cl)cc1)S(=O)(=O)c1ccc([N+](=O)[O-])cc1`, the TGI in test [1], in test [2], in [3], in test [4], in test [5] and in test [6] was over 100 µM in each case. In addition, the TGI in test [7], in test [8], in test [9] and in test [10] was over 100 µM in each case.
Consider `COc1ccc(/C=C(/C(=O)c2ccc(Cl)cc2)N2C=CC=CC2=C(C#N)C#N)cc1OC`, for which the TGI in [1] is 26.3 µM; in [2], 44.9 µM; in test [3], 5.41 µM; in [4] it was over 32.9 µM; in [5], 4.2 µM; in test [6] it was 28.5 µM. For the same molecule, the TGI in test [7] came to 29.7 µM; in [8], 32.1 µM; in test [9], 11.9 µM; in test [10], 20.3 µM.
